The results in this text go back to patent publication US10195216B1, “Antimicrobial activity and oil compositions of Costus speciosus (KOEN)” (King Abdulaziz University, priority 2017, dated 2019).

The test system of one data set is M. gypseum. The data set can be described thus: agar disc diffusion, inhibition zone. The class given is cell-based, Microsporum gypseum. As to conditions: diosgenin at 1.25 m. As to the method: (§1) M. gypseum, M. canis, C. albicans and C. tropicalis isolates were obtained from King Faisal Specialist Hospital & Research Centre-Jeddah, Saudi Arabia. They were cultured on sabaroud dextrose agar media (Oxoid CM 41) at 25° C. Antimicrobial activities of essential oils and plant extracts of Indian Costus. About 0.5 g of the testing compound was dissolved in 1.25 ml of a solvent (chloroform, ethanol and methanol) and it was cultured in sabaroud dextrose agar media and blood agar media using the agar disc diffusion method. Each media used were inoculated with 1 ml from a suspension of M. gypseum, M. canis and C. albicans for sabaroud dextrose agar and P. aeruginosa and S. aureus for blood agar. The fungi and yeast were incubated at 25° C. for 8 days, and 48 hours respectively and then tested at 37° C. for 24 hours. After that, the diameter of inhibition zones was measured in millimeters; Baker F J, Breach M R. Medical Microbiological Techniques, Butterworths 1980; Hasenekoglu H. Laboratory techniques for micro fungi. Ataturk University. Erzurum 1990 (both incorporated by reference).
(In general: In agar diffusion tests the substance spreads into inoculated agar from a disc or well.)

In another data set the test system is C. tropicalis. The data set can be described thus: agar disc diffusion, inhibition zone. The class given is cell-based, Candida tropicalis. The note with it: same extract concentrations. As to the method:
as §1

A further data set deals with C. albicans. The data set can be described thus: agar disc diffusion, inhibition zone. As to conditions: same extract concentrations. Type of data set: cell-based, Candida albicans. As to the method:
as §1

Compound `CC1CC[C@@]2(OC1)O[C@H]1C[C@H]3[C@@H]4CC5OC56CCCC[C@]6(C)[C@H]4CC[C@]3(C)[C@H]1[C@@H]2C` (stereo partly shown) [diosgenin epoxide, 5,6-Epoxyspirostane] registered a melting point of 195 to 200 °C.

As for `C[C@@H]1CC[C@@]2(OC1)O[C@H]1C[C@H]3[C@@H]4CC=C5C[C@@H](O)CC[C@]5(C)[C@H]4CC[C@]3(C)[C@H]1[C@@H]2C` [Indian Costus diosgenin, (3β,25R)-spirost-5-en-3-ol], the results for the “antimicrobial activity in words” value in the data set with M. gypseum, in the data set with C. tropicalis and with C. albicans were “effective”, “not as effective” and “not as effective”, respectively.

For orientation: melting point means the temperature, or range, at which the solid turns liquid.
